From PMC12475274, “Harnessing indole scaffolds to identify small-molecule IRE1α inhibitors modulating XBP1 mRNA splicing” (Nature Communications, 2025) come the findings set out here.

One test deals with BTK (Homo sapiens, UniProt Q06187). As to the kind of experiment: Kinase profiling (SelectScreen), ZLYTE. It is filed as biochemical. On the procedure: (§1) Kinase profiling was conducted by the SelectScreen Kinase Profiling Services (Thermo Fisher), using Z′-LYTE, Adapta, or LanthaScreen Eu Kinase Binding Assay for different kinases. The kinome phylogenetic tree was generated using the KinMap web portal.

Another test has as its target ROCK1 (Homo sapiens, UniProt Q13464). The experiment in a line: Kinase profiling (SelectScreen), ZLYTE. The class given is biochemical. On the procedure: as §1
Another test addresses MAPK8 (JNK1) (Homo sapiens, UniProt P45983). As to the kind of experiment: Kinase profiling (SelectScreen), ZLYTE. The following applies: IA107 at 5 μM; ATP 100 μM. The class given is biochemical. On the procedure: as §1
The target of another test is GSK3B (GSK3 beta) (Homo sapiens, UniProt P49841). As to the kind of experiment: Kinase profiling (SelectScreen), ZLYTE. The class given is biochemical. On the procedure:
as §1

The next test deals with INSR (Homo sapiens, UniProt P06213). As to the kind of experiment: Kinase profiling (SelectScreen), ZLYTE. The class given is biochemical. On the procedure:
as §1

A further test deals with TEK (Tie2) (Homo sapiens, UniProt Q02763). The experiment in a line: Kinase profiling (SelectScreen), ZLYTE. The class given is biochemical. On the procedure: as §1
For another test, the target named is TAOK2 (TAO1) (Homo sapiens, UniProt Q9UL54). The experiment in a line: Kinase profiling (SelectScreen), ZLYTE. It is filed as biochemical. As for the experimental part: as §1
The target of the next test is MARK2 (Homo sapiens, UniProt Q7KZI7). The experiment in a line: Kinase profiling (SelectScreen), ZLYTE. The class given is biochemical. As for the experimental part: as §1
A further test has as its target RPS6KB1 (p70S6K) (Homo sapiens, UniProt P23443). The experiment in a line: Kinase profiling (SelectScreen), ZLYTE. It is filed as biochemical. As for the experimental part: as §1
In the next test the target is CHEK1 (CHK1) (Homo sapiens, UniProt O14757). As to the kind of experiment: Kinase profiling (SelectScreen), ZLYTE. It is filed as biochemical. On the procedure: as §1
The next test deals with MAP2K1 (MEK1) (Homo sapiens, UniProt Q02750). The experiment in a line: Kinase profiling (SelectScreen), ZLYTE. The class given is biochemical. The conditions noted are these: IA107 at 5 μM; ATP 100 μM. As for the experimental part: as §1
The target in a further test is IKBKE (IKK epsilon) (Homo sapiens, UniProt Q14164). The experiment in a line: Kinase profiling (SelectScreen), ZLYTE. The class given is biochemical. As for the experimental part: as §1
The next test deals with PRKCB1 (PKC beta I) (Homo sapiens, UniProt P05771). The experiment in a line: Kinase profiling (SelectScreen), ZLYTE. The class given is biochemical. On the procedure: as §1
The target in another test is AMPK A1/B1/G1 (Homo sapiens, UniProt Q13131). As to the kind of experiment: Kinase profiling (SelectScreen), ZLYTE. It is filed as biochemical. On the procedure:
as §1

The target of a further test is NTRK2 (TRKB) (Homo sapiens, UniProt Q16620). The experiment in a line: Kinase profiling (SelectScreen), ZLYTE. The class given is biochemical. As for the experimental part:
as §1

The next test addresses EGFR (ErbB1) (Homo sapiens, UniProt P00533). The experiment in a line: Kinase profiling (SelectScreen), ZLYTE. The class given is biochemical. As for the experimental part:
as §1

The target in a further test is PHKG2 (Homo sapiens, UniProt P15735). As to the kind of experiment: Kinase profiling (SelectScreen), ZLYTE. The class given is biochemical. On the procedure:
as §1

A further test addresses PDGFRB (PDGFR beta) (Homo sapiens, UniProt P09619). The experiment in a line: Kinase profiling (SelectScreen), ZLYTE. The class given is biochemical. As for the experimental part: as §1
In a further test the target is LCK (Homo sapiens, UniProt P06239). The experiment in a line: Kinase profiling (SelectScreen), ZLYTE. It is filed as biochemical. On the procedure: as §1
Another test concerns the target KDR (VEGFR2) (Homo sapiens, UniProt P35968). The experiment in a line: Kinase profiling (SelectScreen), ZLYTE. The class given is biochemical. On the procedure: as §1
Another test has as its target MET (cMet) (Homo sapiens, UniProt P08581). As to the kind of experiment: Kinase profiling (SelectScreen), ZLYTE. The class given is biochemical. As for the experimental part: as §1
Another test deals with EPHA2 (Homo sapiens, UniProt P29317). The experiment in a line: Kinase profiling (SelectScreen), ZLYTE. The class given is biochemical. On the procedure: as §1
The target of the next test is DYRK1A (Homo sapiens, UniProt Q13627). The experiment in a line: Kinase profiling (SelectScreen), ZLYTE. It is filed as biochemical. As for the experimental part:
as §1

The target of another test is PAK4 (Homo sapiens, UniProt O96013). As to the kind of experiment: Kinase profiling (SelectScreen), ZLYTE. The class given is biochemical. On the procedure:
as §1

The next test addresses RET (Homo sapiens, UniProt P07949). The experiment in a line: Kinase profiling (SelectScreen), ZLYTE. The class given is biochemical. As for the experimental part:
as §1

In the next test the target is PLK1 (Homo sapiens, UniProt P53350). As to the kind of experiment: Kinase profiling (SelectScreen), ZLYTE. It is filed as biochemical. On the procedure:
as §1

For another test, the target named is SRC (Homo sapiens, UniProt P12931). As to the kind of experiment: Kinase profiling (SelectScreen), ZLYTE. It is filed as biochemical. On the procedure:
as §1

A further test has as its target SGKL (SGK3) (Homo sapiens, UniProt Q96BR1). The experiment in a line: Kinase profiling (SelectScreen), ZLYTE. It is filed as biochemical. As for the experimental part:
as §1

For the next test, the target named is NEK1 (Homo sapiens, UniProt Q96PY6). The experiment in a line: Kinase profiling (SelectScreen), ZLYTE. It is filed as biochemical. As for the experimental part:
as §1

Another test addresses FGFR1 (Homo sapiens, UniProt P11362). The experiment in a line: Kinase profiling (SelectScreen), ZLYTE. The class given is biochemical. As for the experimental part: as §1
In the next test the target is ABL1 (Homo sapiens, UniProt P00519). As to the kind of experiment: Kinase profiling (SelectScreen), ZLYTE. It is filed as biochemical. As for the experimental part: as §1
The target in a further test is KIT (Homo sapiens, UniProt P10721). The experiment in a line: Kinase profiling (SelectScreen), ZLYTE. It is filed as biochemical. As for the experimental part: as §1
In test [1] the test system is XBP1 mRNA splicing in HCT 116 cells. The experiment in a line: RT-qPCR of ER stress-induced XBP1 mRNA splicing, HCT 116. The class given is cell-based, human. The conditions noted are these: HCT 116 cells. On the procedure:
A549 cells, HCT 116 cells, and HT-29 cells were collected and seeded in 6-well plates at a density of 5 × 10^5 cells per well and cultured overnight to attach, then treated with compound or DMSO for 2 h, then 0.5 μg/mL final concentration of tunicamycin (Tm, MP Biomedi, 0215002805) were added to induce the ER stress for 2 h. After treatment, total RNA was purified using an RNeasy mini kit (Qiagen, 74106). 500 ng of total RNA was used for reverse transcription using the High-Capacity cDNA Reverse Transcription Kits (Thermo Fisher, 4368814). cDNA was diluted 1: 5 using RNase-free water, and 1 μL CDNA was used for each qPCR reaction. The qPCR was performed using PowerUp™ SYBR™ Green Master Mix (Thermo Fisher, A25742) with 10 µL reaction volume using Bio-Rad CFX96 Real-Time PCR Detection System following the standard cycling mode (primer Tm ≥ 60 °C) on the manufacturer’s protocol. Data was analyzed using the 2^- ΔΔCt method. The primers used are listed in Supplementary Table S3. The inhibition % was calculated by using the equation: inhibition% = 100× (normalized Tm control - normalized of the sample)/(normalized Tm control - normalized DMSO control). Tm control: Cells treated with tunicamycin; DMSO control: Cells treated with DMSO only.
On the technique in general: Real-time PCR tracks product formation cycle by cycle.

AMPK A1/B1/G1, sequence (Q13131 whole entry): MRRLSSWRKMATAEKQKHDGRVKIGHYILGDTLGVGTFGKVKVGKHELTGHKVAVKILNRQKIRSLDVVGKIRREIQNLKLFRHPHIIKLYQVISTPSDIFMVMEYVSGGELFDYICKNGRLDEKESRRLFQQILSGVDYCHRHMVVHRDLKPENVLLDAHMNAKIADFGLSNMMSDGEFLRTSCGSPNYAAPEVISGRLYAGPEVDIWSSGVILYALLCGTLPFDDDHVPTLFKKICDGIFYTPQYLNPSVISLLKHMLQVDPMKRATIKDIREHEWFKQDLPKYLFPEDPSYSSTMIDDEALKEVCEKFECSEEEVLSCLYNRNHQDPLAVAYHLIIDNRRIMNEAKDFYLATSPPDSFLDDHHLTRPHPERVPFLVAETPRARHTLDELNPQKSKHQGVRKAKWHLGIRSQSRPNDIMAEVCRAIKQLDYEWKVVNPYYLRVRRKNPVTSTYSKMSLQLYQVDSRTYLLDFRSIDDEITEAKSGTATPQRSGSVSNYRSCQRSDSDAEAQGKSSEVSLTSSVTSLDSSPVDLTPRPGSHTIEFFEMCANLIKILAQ
AMPK A1/B1/G1, sequence (Q9Y478 whole entry partner): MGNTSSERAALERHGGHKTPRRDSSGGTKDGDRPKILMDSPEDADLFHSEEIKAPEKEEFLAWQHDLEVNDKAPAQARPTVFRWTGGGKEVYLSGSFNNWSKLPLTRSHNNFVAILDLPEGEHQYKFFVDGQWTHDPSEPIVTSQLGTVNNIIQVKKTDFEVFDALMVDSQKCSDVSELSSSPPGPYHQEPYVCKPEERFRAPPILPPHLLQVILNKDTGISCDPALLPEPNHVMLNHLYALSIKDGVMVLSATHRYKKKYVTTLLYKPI
AMPK A1/B1/G1, sequence (P54619 whole entry partner): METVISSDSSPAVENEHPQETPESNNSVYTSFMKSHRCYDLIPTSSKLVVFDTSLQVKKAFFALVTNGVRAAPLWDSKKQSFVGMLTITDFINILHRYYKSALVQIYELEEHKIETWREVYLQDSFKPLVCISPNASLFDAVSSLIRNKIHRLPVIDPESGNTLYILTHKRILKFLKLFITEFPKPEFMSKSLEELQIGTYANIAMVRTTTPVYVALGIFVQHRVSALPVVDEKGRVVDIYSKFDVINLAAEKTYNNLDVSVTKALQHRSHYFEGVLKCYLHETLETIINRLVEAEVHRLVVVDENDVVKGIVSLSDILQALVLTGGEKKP
SGKL (SGK3), sequence (Q96BR1 whole entry): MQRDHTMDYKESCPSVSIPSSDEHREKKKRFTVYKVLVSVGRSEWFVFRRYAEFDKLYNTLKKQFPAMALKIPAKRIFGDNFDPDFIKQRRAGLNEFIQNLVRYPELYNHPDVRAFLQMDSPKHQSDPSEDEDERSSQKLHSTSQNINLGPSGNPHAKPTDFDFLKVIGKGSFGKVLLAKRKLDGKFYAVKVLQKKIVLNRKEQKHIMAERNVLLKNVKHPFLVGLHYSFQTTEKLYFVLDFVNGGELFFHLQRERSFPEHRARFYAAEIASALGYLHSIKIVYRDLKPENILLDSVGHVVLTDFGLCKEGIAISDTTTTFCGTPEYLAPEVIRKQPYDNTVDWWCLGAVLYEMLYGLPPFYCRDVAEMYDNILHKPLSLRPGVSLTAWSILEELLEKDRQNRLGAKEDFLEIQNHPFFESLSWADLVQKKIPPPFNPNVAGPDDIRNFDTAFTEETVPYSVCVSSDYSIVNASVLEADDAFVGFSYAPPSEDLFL
LCK, sequence (P06239 whole entry): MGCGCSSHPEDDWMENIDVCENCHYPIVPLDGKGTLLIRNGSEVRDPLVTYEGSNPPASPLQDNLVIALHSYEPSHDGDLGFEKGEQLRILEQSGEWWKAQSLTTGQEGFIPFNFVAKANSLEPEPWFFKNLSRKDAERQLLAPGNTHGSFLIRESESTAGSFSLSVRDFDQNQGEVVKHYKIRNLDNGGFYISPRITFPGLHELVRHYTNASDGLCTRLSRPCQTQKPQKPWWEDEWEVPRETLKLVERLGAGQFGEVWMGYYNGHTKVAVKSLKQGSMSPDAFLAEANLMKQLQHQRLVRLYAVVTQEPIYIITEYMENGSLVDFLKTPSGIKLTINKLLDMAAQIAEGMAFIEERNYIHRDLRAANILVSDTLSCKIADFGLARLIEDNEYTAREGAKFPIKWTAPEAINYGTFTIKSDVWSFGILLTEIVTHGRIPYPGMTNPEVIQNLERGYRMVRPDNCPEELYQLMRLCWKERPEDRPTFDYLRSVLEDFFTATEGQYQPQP
ROCK1, sequence (Q13464 whole entry): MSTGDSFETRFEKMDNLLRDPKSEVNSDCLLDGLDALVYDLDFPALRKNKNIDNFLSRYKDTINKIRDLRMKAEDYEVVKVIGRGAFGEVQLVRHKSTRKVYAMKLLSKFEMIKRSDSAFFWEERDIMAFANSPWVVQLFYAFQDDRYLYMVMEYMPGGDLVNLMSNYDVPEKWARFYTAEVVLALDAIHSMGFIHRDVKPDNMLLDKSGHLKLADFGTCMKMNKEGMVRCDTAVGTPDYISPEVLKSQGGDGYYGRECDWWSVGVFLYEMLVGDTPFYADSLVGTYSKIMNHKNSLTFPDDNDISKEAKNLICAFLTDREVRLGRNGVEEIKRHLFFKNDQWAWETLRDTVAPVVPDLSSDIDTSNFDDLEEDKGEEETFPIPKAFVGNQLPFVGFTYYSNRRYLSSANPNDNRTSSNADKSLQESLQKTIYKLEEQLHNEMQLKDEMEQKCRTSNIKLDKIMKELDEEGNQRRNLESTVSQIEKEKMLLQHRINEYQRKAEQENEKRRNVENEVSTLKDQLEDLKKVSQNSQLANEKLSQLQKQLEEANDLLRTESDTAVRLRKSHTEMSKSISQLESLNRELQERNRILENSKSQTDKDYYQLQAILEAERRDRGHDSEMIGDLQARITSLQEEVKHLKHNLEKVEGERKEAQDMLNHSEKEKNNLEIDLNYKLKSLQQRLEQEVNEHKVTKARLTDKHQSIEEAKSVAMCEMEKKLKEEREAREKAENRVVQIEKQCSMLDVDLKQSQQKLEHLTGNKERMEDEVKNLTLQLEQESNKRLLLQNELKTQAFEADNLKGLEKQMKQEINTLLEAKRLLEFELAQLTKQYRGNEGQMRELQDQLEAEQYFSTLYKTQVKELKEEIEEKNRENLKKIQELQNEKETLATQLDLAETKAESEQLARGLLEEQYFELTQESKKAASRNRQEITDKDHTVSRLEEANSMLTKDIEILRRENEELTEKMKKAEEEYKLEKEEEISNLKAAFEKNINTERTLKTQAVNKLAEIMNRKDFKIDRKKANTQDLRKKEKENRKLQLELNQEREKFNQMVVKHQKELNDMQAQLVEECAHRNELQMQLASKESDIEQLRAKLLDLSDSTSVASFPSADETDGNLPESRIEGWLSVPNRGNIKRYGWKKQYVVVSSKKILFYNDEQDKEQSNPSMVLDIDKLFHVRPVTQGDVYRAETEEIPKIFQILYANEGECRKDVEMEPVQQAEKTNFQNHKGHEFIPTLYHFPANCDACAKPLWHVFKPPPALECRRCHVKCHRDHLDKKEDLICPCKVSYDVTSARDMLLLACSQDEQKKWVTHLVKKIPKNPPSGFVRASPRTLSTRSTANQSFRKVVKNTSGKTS
PRKCB1 (PKC beta I), sequence (P05771 whole entry): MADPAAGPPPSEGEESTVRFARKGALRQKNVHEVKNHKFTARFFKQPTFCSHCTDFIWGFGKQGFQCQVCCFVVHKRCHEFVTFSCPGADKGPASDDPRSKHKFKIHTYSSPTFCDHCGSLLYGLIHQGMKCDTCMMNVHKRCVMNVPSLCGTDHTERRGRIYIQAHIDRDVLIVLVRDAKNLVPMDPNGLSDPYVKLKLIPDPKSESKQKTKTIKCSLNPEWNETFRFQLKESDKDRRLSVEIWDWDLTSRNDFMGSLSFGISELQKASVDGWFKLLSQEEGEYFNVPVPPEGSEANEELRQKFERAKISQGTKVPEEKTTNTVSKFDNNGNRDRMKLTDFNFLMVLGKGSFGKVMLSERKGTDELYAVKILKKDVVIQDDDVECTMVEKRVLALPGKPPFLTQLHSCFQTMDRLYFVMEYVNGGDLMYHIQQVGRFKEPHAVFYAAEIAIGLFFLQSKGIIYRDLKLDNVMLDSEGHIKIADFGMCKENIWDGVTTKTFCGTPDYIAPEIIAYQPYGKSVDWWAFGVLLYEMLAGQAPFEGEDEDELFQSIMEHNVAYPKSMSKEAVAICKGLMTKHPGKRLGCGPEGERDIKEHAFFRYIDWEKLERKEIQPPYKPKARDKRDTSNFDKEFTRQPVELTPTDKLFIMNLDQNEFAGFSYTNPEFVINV
SRC, sequence (P12931 whole entry): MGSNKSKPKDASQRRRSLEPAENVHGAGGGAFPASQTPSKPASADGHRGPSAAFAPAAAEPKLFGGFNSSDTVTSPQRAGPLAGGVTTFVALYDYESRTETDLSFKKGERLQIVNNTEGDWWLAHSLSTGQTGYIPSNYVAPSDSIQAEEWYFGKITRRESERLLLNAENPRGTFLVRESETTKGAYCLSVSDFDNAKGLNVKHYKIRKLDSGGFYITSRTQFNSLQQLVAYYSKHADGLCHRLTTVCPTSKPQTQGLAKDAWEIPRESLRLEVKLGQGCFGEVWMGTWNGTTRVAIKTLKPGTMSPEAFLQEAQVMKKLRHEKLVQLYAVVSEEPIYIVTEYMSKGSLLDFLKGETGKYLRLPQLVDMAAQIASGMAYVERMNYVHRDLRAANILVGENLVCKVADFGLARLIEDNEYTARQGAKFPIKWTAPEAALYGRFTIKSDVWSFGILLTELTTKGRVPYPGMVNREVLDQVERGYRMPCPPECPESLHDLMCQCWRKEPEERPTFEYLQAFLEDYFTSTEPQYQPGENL

In general, inhibition refers to the change of the read-out against control, counted positive when it falls. For the compound `Cc1c(CCC(=O)O)c2cc(Br)ccc2n1C(=O)c1ccccc1` [IA107], the inhibition at 5 µM was 8% at BTK; 1% against ROCK1; -8% against MAPK8 (JNK1); 21% against GSK3B (GSK3 beta); 5% against INSR; 6% on TEK (Tie2). In addition, the inhibition at 5 µM against TAOK2 (TAO1) was -4%; on MARK2 it was 8%; against RPS6KB1 (p70S6K), 3%; against CHEK1 (CHK1), 10%; against MAP2K1 (MEK1), 3%; on IKBKE (IKK epsilon) it was 2%. For the same compound, the inhibition at 5 µM came out at 7% at PRKCB1 (PKC beta I); 9% against AMPK A1/B1/G1; 5% against NTRK2 (TRKB); 5% against EGFR (ErbB1); 26% at PHKG2; 0% against PDGFRB (PDGFR beta). In addition, the inhibition at 5 µM was 8% against LCK; 1% against KDR (VEGFR2); 3% on MET (cMet); 4% against EPHA2; 4% at DYRK1A; -3% against PAK4. For the same compound, the inhibition at 5 µM stood at 9% at RET; 3% at PLK1; 4% against SRC; 1% against SGKL (SGK3); 17% at NEK1; 4% against FGFR1. Moreover, the results for the inhibition at 5 µM against ABL1 and at KIT were 3% and 0%, respectively.
As a reminder, the IC50 is the concentration at which inhibition is half-maximal. Lower therefore signals greater potency in that assay. Consider `CCOC(=O)CCc1c(C)n(C(=O)c2ccccc2)c2ccc(Br)cc12` [IAPD1], for which the “inhibition of ER stress-induced XBP1 mRNA splicing” value in test [1] is on record as “inhibited”. Besides, the midpoint of inhibition in [1] (Homo sapiens), the IC50, lay at 220 nM.
